Reference: patent US20260364078A1, “PURINE NUCLEOSIDE PHOSPHORYLASE INHIBITORS FOR THE TREATMENT OF METABOLIC SYNDROME AND ASSOCIATED CONDITIONS” (METASHAPE PHARMA AG, priority 2022, published 2026)

How the values were obtained:
Type in all cases: in vivo, C57/BL6J mice
[1] = tested on: Diet Induced Obesity (DIO) mouse model; test: Example 1: low and intermittent dosing in DIO mouse model; details: 2 mg/kg p.o., 3 days a week, 28 days
Source text: The aim of the preliminary study is to determine the effect of low and intermittent dosing of ulodesine hemi glutarate on the following parameters: weight gain, food intake, fasting blood glucose concentration and serum cholesterol. The study assesses ulodesine hemi glutarate efficacy on the listed parameters in the DIO mouse model of obesity and metabolic dysfunction.
Method: C57/BL6J mice were fed obesogenic diet D12492 (60 kcal % fat) from age 6 weeks. Eighteen week old mice (approximately 40 g) were either treated with vehicle (control) or ulodesine hemi glutarate at 2 mg/kg for 3 days a week (days 1, 2 and 3) given orally, over a 28 day period. On day −2 and on day 28, animals were fasted for 6 hr by withdrawing food only, and blood was collected for both blood glucose and cholesterol measurements.

[2] = tested on: fatty acid synthetase (FAS); test: Example 2: quantitative PCR of lipogenesis marker FAS; details: 2 mg/kg p.o., 3 days a week, 28 days; vs vehicle
Procedure: (§1) Method: C57/BL6J mice were fed obesogenic diet D12492 (60 kcal % fat) from age 6 weeks. Nineteen week old mice (approximately 50 g) were either treated with vehicle (control) or ulodesine hemi glutarate at 2 mg/kg for 3 days a week (days 1, 2 and 3), given orally, over a 28 day period. On day minus 2 and on day 28, animals were fasted for 6 hr (only food withdrawn) and blood was collected for both blood glucose and cholesterol. On day 28 plasma liver enzymes (AST and ALT) and insulin were determined and additional plasma and whole blood was frozen and used for inosine and NAD+ measurement. BAT and iWAT was collected at the end of the study, weighed and quantitative PCR was performed for the lipogenesis markers Stearoyl CoA desaturase 1 (SCD-1) and fatty acid synthetase (FAS) and the thermogenesis marker uncoupling protein 1 (UCP-1). Inosine and NAD+ levels in stored plasma and whole blood respectively were determined by LC/MS/MS.

lymphocytes = test: Example 4: total lymphocytes by flow cytometry in DIO mouse model; details: 3 days a week, 4 weeks
Procedure: The aim of this study is to determine the effect of increasing doses of ulodesine hemi glutarate on lymphocytes in whole blood.
Method: C57/BL6J mice were fed obesogenic diet D12492 (60 kcal % fat) from age 6 weeks. Eighteen weeks old mice (approximately 40 g) were either treated with vehicle (control) or ulodesine hemi glutarate at 1, 2, 5, and 10 mg/kg for only 3 days a week (days 1, 2 and 3) given orally for 4 weeks. At the end of four weeks, flow cytometry was used to enumerate total lymphocytes.

[3] = tested on: uncoupling protein 1 (UCP-1); test: Example 2: quantitative PCR of thermogenesis marker in BAT; details: 2 mg/kg p.o., 3 days a week, 28 days; vs vehicle
Procedure: as §1

[4] = tested on: Stearoyl CoA desaturase 1 (SCD-1); test: Example 2: quantitative PCR of lipogenesis marker SCD-1; details: 2 mg/kg p.o., 3 days a week, 28 days; vs vehicle
Procedure: as §1

DIO mouse model = test: Example 2: low and intermittent dosing in DIO mouse model; details: 2 mg/kg p.o., 3 days a week
Source text: The aim of this study is to determine the effect of a low and intermittent dosing regime of ulodesine hemi glutarate on the following parameters: weight gain, food intake, fasting blood glucose concentration, serum insulin, serum cholesterol, plasma liver enzymes aspartate aminotransferase (AST) and alanine transaminase (ALT), inguinal white adipose tissue (iWAT), BAT; inosine in plasma and NAD+ in whole blood, and expression of lipogenesis (fatty acid synthesis) markers in iWAT and thermogenic markers in BAT. The study will assess ulodesine hemi glutarate efficacy on the listed parameters in the DIO mouse model of obesity and metabolic dysfunction.
as §1

SMILES: O=c1[nH]cnc2c(CN3C[C@H](CO)[C@@H](O)C3)c[nH]c12 [ulodesine hemi glutarate]
- toxicity or adverse effects [1]: no signs of any toxicity or adverse effects
- fasting blood glucose ([1]; vs control): decrease in blood glucose
- serum cholesterol ([1]; vs control): decrease in blood glucose and serum cholesterol
- weight gain ([1]; ~40 g mice, vs control): significant decrease in weight gain
- expression of lipogenesis marker FAS in WAT tissue [2]: decrease
- number of lymphocytes (lymphocytes; 1 mg/kg p.o.): does not impact the number of lymphocytes
- number of lymphocytes (lymphocytes; 2 mg/kg p.o.): does not impact the number of lymphocytes
- number of lymphocytes (lymphocytes; 5 mg/kg p.o.): not significant at doses of 5 mg and 10 mg/kg, there appeared to be an observable decrease in lymphocytes
- number of lymphocytes (lymphocytes; 10 mg/kg p.o.): not significant at doses of 5 mg and 10 mg/kg, there appeared to be an observable decrease in lymphocytes
- expression of thermogenic marker UCP-1 in BAT tissue [3]: increase in expression
- expression of lipogenesis marker SCD-1 in WAT tissue [4]: decrease
- insulin sensitivity (DIO mouse model; 28 days): improves insulin sensitivity
- toxicity or adverse effects (DIO mouse model; 28 days): no signs of any toxicity or adverse effects
- decrease in weight gain (DIO mouse model; 28 days, ~50 g mice, vs control): not significantly different from the control group
- NAD+ in whole blood (DIO mouse model; day 28, LC/MS/MS): significantly elevated
- inosine in plasma (DIO mouse model; day 28, LC/MS/MS): significantly elevated
